Test results as given in US10336792B2, “Antimicrobial peptide dendrimers” (priority 2014, dated 2019).
In brackets after ≈: the same amount, converted by molar mass. Positions of bridges follow the written chain, without caps; N, C: chain ends. Residues, ends and D or L forms follow the SMILES beside them. Groups on a side chain read outwards from the residue. Chains are numbered I, II in the order given. *: point of attachment. Lauroyl = CCCCCCCCCCCC(=O)*; Decanoyl = CCCCCCCCCC(=O)*; Octanoyl = CCCCCCCC(=O)*; Hexanoyl = CCCCCC(=O)*

What was measured:
Type in all cases: cell-based
[1] = tested on: Pseudomonas aeruginosa (strain PA01); test: microbe, parasite or virus in culture; details: strain
Summary of the method: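 P. aeruginosa PAO1 grown overnight in LB, diluted to OD600 0.001 and mixed with ⅔-step peptide dilutions, then incubated at 37 °C for 18–24 h. After MTT staining, the lowest concentration with no visible growth was read by eye as the MIC.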

[2] = tested on: Bacillus subtilis (strain BR151); details: strain BR151
Summary of the method: (§1)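 Broth microdilution MIC in LB; overnight cultures diluted to OD600 0.001 and mixed 1:1 with ⅔-serially diluted samples (stock 1 mg mL^−1 in H2O), 37° C for 18-24 h. MTT (0.1%) added; MIC read by eye as lowest concentration inhibiting visible growth (yellow).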

[3] = tested on: Escherichia coli (strain DH5α); details: DH5α
Summary of the method: as §1

Row | SMILES | MIC P. aeruginosa PAO1 [1] [µg/mL] | MIC B. subtilis BR151 [2] [µg/mL] | MIC E. coli DH5α [3] [µg/mL]
1 | CCCCCC(=O)NCCCC[C@H](NC(=O)[C@H](CC(C)C)NC(=O)[C@H](CCCCN)NC(=O)[C@H](CCCCNC(=O)[C@H](CC(C)C)NC(=O)[C@H](CCCCN)NC(=O)[C@H](CCCCNC(=O)[C@H](CC(C)C)NC(=O)[C@@H](N)CCCCN)NC(=O)[C@H](CC(C)C)NC(=O)[C@@H](N)CCCCN)NC(=O)[C@H](CC(C)C)NC(=O)[C@H](CCCCN)NC(=O)[C@H](CCCCNC(=O)[C@H](CC(C)C)NC(=O)[C@@H](N)CCCCN)NC(=O)[C@H](CC(C)C)NC(=O)[C@@H](N)CCCCN)C(N)=O [MSt-260, (KL)4(KKL)2(KKLKC6)] (I: H-KLK([Leu-Lys])KLKKLK(Hexanoyl)-NH2 / II: H-KLK([Leu-Lys])KL; amide I:6-II:C) | 1 (≈ 0.432 µM) | 20 (≈ 8.63 µM) | 2 (≈ 0.863 µM)
2 | CCCCCCCC(=O)NCCCC[C@H](NC(=O)[C@H](CC(C)C)NC(=O)[C@H](CCCCN)NC(=O)[C@H](CCCCNC(=O)[C@H](CC(C)C)NC(=O)[C@H](CCCCN)NC(=O)[C@H](CCCCNC(=O)[C@H](CC(C)C)NC(=O)[C@@H](N)CCCCN)NC(=O)[C@H](CC(C)C)NC(=O)[C@@H](N)CCCCN)NC(=O)[C@H](CC(C)C)NC(=O)[C@H](CCCCN)NC(=O)[C@H](CCCCNC(=O)[C@H](CC(C)C)NC(=O)[C@@H](N)CCCCN)NC(=O)[C@H](CC(C)C)NC(=O)[C@@H](N)CCCCN)C(N)=O [MSt-261, (KL)4(KKL)2(KKLKC8)] (I: H-KLK([Leu-Lys])KLKKLK(Octanoyl)-NH2 / II: H-KLK([Leu-Lys])KL; amide I:6-II:C) | 1 (≈ 0.426 µM) | 4 (≈ 1.71 µM) | 1 (≈ 0.426 µM)
3 | CCCCCCCCCC(=O)NCCCC[C@H](NC(=O)[C@H](CC(C)C)NC(=O)[C@H](CCCCN)NC(=O)[C@H](CCCCNC(=O)[C@H](CC(C)C)NC(=O)[C@H](CCCCN)NC(=O)[C@H](CCCCNC(=O)[C@H](CC(C)C)NC(=O)[C@@H](N)CCCCN)NC(=O)[C@H](CC(C)C)NC(=O)[C@@H](N)CCCCN)NC(=O)[C@H](CC(C)C)NC(=O)[C@H](CCCCN)NC(=O)[C@H](CCCCNC(=O)[C@H](CC(C)C)NC(=O)[C@@H](N)CCCCN)NC(=O)[C@H](CC(C)C)NC(=O)[C@@H](N)CCCCN)C(N)=O [MSt-262, (KL)4(KKL)2(KKLKC10)] (I: H-KLK([Leu-Lys])KLKKLK(Decanoyl)-NH2 / II: H-KLK([Leu-Lys])KL; amide I:6-II:C) | 1 (≈ 0.421 µM) | 2 (≈ 0.843 µM) | 1 (≈ 0.421 µM)
4 | CCCCCC(=O)NCCCC[C@H](NC(=O)[C@H](CC(C)C)NC(=O)[C@H](CCCCN)NC(=O)[C@H](CCCCNC(=O)[C@H](CC(C)C)NC(=O)[C@H](CCCCN)NC(=O)[C@H](CCCCNC(=O)[C@H](CC(C)C)NC(=O)[C@H](CCCCN)NC(=O)[C@H](CCCCNC(=O)[C@H](CC(C)C)NC(=O)[C@@H](N)CCCCN)NC(=O)[C@H](CC(C)C)NC(=O)[C@@H](N)CCCCN)NC(=O)[C@H](CC(C)C)NC(=O)[C@H](CCCCN)NC(=O)[C@H](CCCCNC(=O)[C@H](CC(C)C)NC(=O)[C@@H](N)CCCCN)NC(=O)[C@H](CC(C)C)NC(=O)[C@@H](N)CCCCN)NC(=O)[C@H](CC(C)C)NC(=O)[C@H](CCCCN)NC(=O)[C@H](CCCCNC(=O)[C@H](CC(C)C)NC(=O)[C@H](CCCCN)NC(=O)[C@H](CCCCNC(=O)[C@H](CC(C)C)NC(=O)[C@@H](N)CCCCN)NC(=O)[C@H](CC(C)C)NC(=O)[C@@H](N)CCCCN)NC(=O)[C@H](CC(C)C)NC(=O)[C@H](CCCCN)NC(=O)[C@H](CCCCNC(=O)[C@H](CC(C)C)NC(=O)[C@@H](N)CCCCN)NC(=O)[C@H](CC(C)C)NC(=O)[C@@H](N)CCCCN)C(N)=O [MSt-264, (KL)8(KKL)4(KKL)2(KKLKC6)] (I: H-KLK([Leu-Lys])KLKKLKKLK(Hexanoyl)-NH2 / II: H-KLK([Leu-Lys])KLKKL / III: H-KLK([Leu-Lys])KL / IV: H-KLK([Leu-Lys])KL; amide I:6-IV:C, I:9-II:C, II:6-III:C) | 1 (≈ 0.21 µM) | 5 (≈ 1.05 µM) | 1 (≈ 0.21 µM)
5 | CCCCCCCC(=O)NCCCC[C@H](NC(=O)[C@H](CC(C)C)NC(=O)[C@H](CCCCN)NC(=O)[C@H](CCCCNC(=O)[C@H](CC(C)C)NC(=O)[C@H](CCCCN)NC(=O)[C@H](CCCCNC(=O)[C@H](CC(C)C)NC(=O)[C@H](CCCCN)NC(=O)[C@H](CCCCNC(=O)[C@H](CC(C)C)NC(=O)[C@@H](N)CCCCN)NC(=O)[C@H](CC(C)C)NC(=O)[C@@H](N)CCCCN)NC(=O)[C@H](CC(C)C)NC(=O)[C@H](CCCCN)NC(=O)[C@H](CCCCNC(=O)[C@H](CC(C)C)NC(=O)[C@@H](N)CCCCN)NC(=O)[C@H](CC(C)C)NC(=O)[C@@H](N)CCCCN)NC(=O)[C@H](CC(C)C)NC(=O)[C@H](CCCCN)NC(=O)[C@H](CCCCNC(=O)[C@H](CC(C)C)NC(=O)[C@H](CCCCN)NC(=O)[C@H](CCCCNC(=O)[C@H](CC(C)C)NC(=O)[C@@H](N)CCCCN)NC(=O)[C@H](CC(C)C)NC(=O)[C@@H](N)CCCCN)NC(=O)[C@H](CC(C)C)NC(=O)[C@H](CCCCN)NC(=O)[C@H](CCCCNC(=O)[C@H](CC(C)C)NC(=O)[C@@H](N)CCCCN)NC(=O)[C@H](CC(C)C)NC(=O)[C@@H](N)CCCCN)C(N)=O [MSt-265, (KL)8(KKL)4(KKL)2(KKLKC8)] (I: H-KLK([Leu-Lys])KLKKLKKLK(Octanoyl)-NH2 / II: H-KLK([Leu-Lys])KLKKL / III: H-KLK([Leu-Lys])KL / IV: H-KLK([Leu-Lys])KL; amide I:6-IV:C, I:9-II:C, II:6-III:C) | 1 (≈ 0.209 µM) | 4 (≈ 0.835 µM) | 1 (≈ 0.209 µM)
6 | CCCCCCCCCC(=O)NCCCC[C@H](NC(=O)[C@H](CC(C)C)NC(=O)[C@H](CCCCN)NC(=O)[C@H](CCCCNC(=O)[C@H](CC(C)C)NC(=O)[C@H](CCCCN)NC(=O)[C@H](CCCCNC(=O)[C@H](CC(C)C)NC(=O)[C@H](CCCCN)NC(=O)[C@H](CCCCNC(=O)[C@H](CC(C)C)NC(=O)[C@@H](N)CCCCN)NC(=O)[C@H](CC(C)C)NC(=O)[C@@H](N)CCCCN)NC(=O)[C@H](CC(C)C)NC(=O)[C@H](CCCCN)NC(=O)[C@H](CCCCNC(=O)[C@H](CC(C)C)NC(=O)[C@@H](N)CCCCN)NC(=O)[C@H](CC(C)C)NC(=O)[C@@H](N)CCCCN)NC(=O)[C@H](CC(C)C)NC(=O)[C@H](CCCCN)NC(=O)[C@H](CCCCNC(=O)[C@H](CC(C)C)NC(=O)[C@H](CCCCN)NC(=O)[C@H](CCCCNC(=O)[C@H](CC(C)C)NC(=O)[C@@H](N)CCCCN)NC(=O)[C@H](CC(C)C)NC(=O)[C@@H](N)CCCCN)NC(=O)[C@H](CC(C)C)NC(=O)[C@H](CCCCN)NC(=O)[C@H](CCCCNC(=O)[C@H](CC(C)C)NC(=O)[C@@H](N)CCCCN)NC(=O)[C@H](CC(C)C)NC(=O)[C@@H](N)CCCCN)C(N)=O [MSt-266, (KL)8(KKL)4(KKL)2(KKLKC10)] (I: H-KLK([Leu-Lys])KLKKLKKLK(Decanoyl)-NH2 / II: H-KLK([Leu-Lys])KLKKL / III: H-KLK([Leu-Lys])KL / IV: H-KLK([Leu-Lys])KL; amide I:6-IV:C, I:9-II:C, II:6-III:C) | 1 (≈ 0.208 µM) | 4 (≈ 0.83 µM) | 1 (≈ 0.208 µM)
7 | CCCCCCCCCCCC(=O)NCCCC[C@H](NC(=O)[C@H](CC(C)C)NC(=O)[C@H](CCCCN)NC(=O)[C@H](CCCCNC(=O)[C@H](CC(C)C)NC(=O)[C@H](CCCCN)NC(=O)[C@H](CCCCNC(=O)[C@H](CC(C)C)NC(=O)[C@H](CCCCN)NC(=O)[C@H](CCCCNC(=O)[C@H](CC(C)C)NC(=O)[C@@H](N)CCCCN)NC(=O)[C@H](CC(C)C)NC(=O)[C@@H](N)CCCCN)NC(=O)[C@H](CC(C)C)NC(=O)[C@H](CCCCN)NC(=O)[C@H](CCCCNC(=O)[C@H](CC(C)C)NC(=O)[C@@H](N)CCCCN)NC(=O)[C@H](CC(C)C)NC(=O)[C@@H](N)CCCCN)NC(=O)[C@H](CC(C)C)NC(=O)[C@H](CCCCN)NC(=O)[C@H](CCCCNC(=O)[C@H](CC(C)C)NC(=O)[C@H](CCCCN)NC(=O)[C@H](CCCCNC(=O)[C@H](CC(C)C)NC(=O)[C@@H](N)CCCCN)NC(=O)[C@H](CC(C)C)NC(=O)[C@@H](N)CCCCN)NC(=O)[C@H](CC(C)C)NC(=O)[C@H](CCCCN)NC(=O)[C@H](CCCCNC(=O)[C@H](CC(C)C)NC(=O)[C@@H](N)CCCCN)NC(=O)[C@H](CC(C)C)NC(=O)[C@@H](N)CCCCN)C(N)=O [MSt-267, (KL)8(KKL)4(KKL)2(KKLKC12)] (I: H-KLK([Leu-Lys])KLKKLKKLK(Lauroyl)-NH2 / II: H-KLK([Leu-Lys])KLKKL / III: H-KLK([Leu-Lys])KL / IV: H-KLK([Leu-Lys])KL; amide I:6-IV:C, I:9-II:C, II:6-III:C) | 1 (≈ 0.206 µM) | 4 (≈ 0.826 µM) | 1 (≈ 0.206 µM)
